Measurements as given in patent US20190231847A1, “TREATMENT OF OCULAR DISEASE” (priority 2016, published 2019).
Where two headings read alike, the source gives them in different places.

Experiments:
retinal inflammation [1] = assay: Mouse experimental autoimmune uveitis (EAU) model, clinical score from fundus images (TEFI); conditions: for Difference between day 14 p.i. and day 24 p.i. (clinical score): paired Student's t test
Protocol: The effect of ALM201 on autoimmune uveitis was tested in a mouse model of experimental autoimmune uveitis (EAU).
All mice were maintained in a normal experimental room and exposed to a 12-hour-dark-12-hour light cycle.
An additional 1 mg Bordetella pertussis toxin (Tocris Bioscience, Bristol, UK) was administered intraperitoneally immediately after peptide injection.
Mouse pupils were dilated with 1% atropine sulphate and 2.5% phenylephrine hydrochloride (Chauvin, Essex, UK). The animals were anaesthetised by isofluorane. […] Clinical score of retinal inflammation was accessed using the criteria described previously by us (Xu et al. 2008a).
Ten mice were assigned into each group.
All animals were treated for 10 days from day 14 to 24 p.i.
Group 2: ALM201 0.3 mg/kg in 100 ml, i.p. injection, once daily.
Group 3: ALM201 3 mg/kg in 100 ml, i.p. injection, once daily.
Group 4: Dexamethasone 0.5 mg/kg in 100 ml, p.o. (gavage), once daily.
Group 5: ALM201 0.3 mg/kg in 100 ml, i.p. injection+Dexamethasone 0.5 mg/kg in 100 ml, p.o. (gavage) once daily.
Data (Clinical score and histological score) was expressed as mean±SD. One way ANOVA followed by the Tukey's Multiple Comparison Test was used to detect difference between all treatment groups. In addition, Mann-Whitney U test (two tails) was used to detect the difference between ALM201 or dexamethasone treated group and PBS control group. Paired Student's t test was used to compare clinical score before and after treatment.

[2] = Bodyweight of EAU mice during the course of treatment; conditions: Dexamethasone 0.5 mg/kg p.o.; ALM201 0.3 mg/kg i.p.+Dexamethasone 0.5 mg/kg p.o.
Description: (§4) Bodyweight (BW) of each mouse was monitored daily during the course of treatment.

[3] = test system: neovascularisation induced by sutures in the cornea; assay: Rat corneal suture model, Example 1 (blinded grading at day 6, images); assay type: in vivo
Protocol: To assess the action of ALM201 (SEQ ID NO:3) on the ocular surface, the ability to halt vessel growth was measured. Vessel growth was stimulated through a well-accepted model (Shi et al., 2011) whereby a suture was placed in the central cornea of rat eyes (FIG. 1). We have shown the rat eye is similar anatomically to the human eye (Moore J E, McMullen C B, Mahon G and Adamis A P. The corneal epithelial stem cell. DNA Cell Biol. 2002; 21(5-6):443-51; incorporated herein by reference).
The experimental groups were: • Subconjunctival injection of peptide (5 rats), control group (5 rats) and positive control group (5 rats) • Intrastromal injection of peptide (5 rats), control group (5 rats) and positive control group (5 rats) • Topical application of peptide (5 rats), control group (5 rats) and positive control group (5 rats)
A suture was placed in the central cornea of one eye of each animal while the control eye remained untouched. For the injection groups, peptide was added to the rat's eyes at day 0, day 3, and day 6. For the topical application group, peptide and the positive control was added daily. Each day after suture, rats were monitored for vessel growth and photographed using a Hawk Eye Portable Digital Slit Lamp (Dioptrix, France) and inverted microscope (Nikon's E600FN; Surrey, UK). At a time point when a difference is noted (e.g. day 6) between untreated and peptide treated animals, they received 8 μg/g tail vein injections of an endothelial-specific fluorescein-conjugated lectin (Lycopersicon esculentum; Vector Laboratories, Burlingame, Calif.). Thirty minutes later, the eyes were harvested and fixed with 10% neutral buffered formalin for 24 hours. The corneas were isolated and flat-mounted on glass slides. The fluorescence in the perfused vessels was captured using a Leica SP5 multiphoton microscope (Milton Keynes, UK). Vessel formation within tagged information file format (.tiff) files was measured by visualization with Image J (Rasband, 1997-2014).
At day 6 all rats were graded by an opthalmologist blinded to the treatment. Grading scales were as follows:
Vessel distance from suture: 0=no reach; 1=small distance; 2=moderate distance; 3=¾ of the way; 4=reached sutures;
Vessel density grading: 0=no density; 1=mild; 2=moderate; 3=high Inflammation grading: 0=none; 1=minimal; 2=moderate; 3=severe;

NFκB = assay: Immunohistochemical analysis of free NFκB expression in rat cornea; assay type: in vivo; conditions: 1 μM ALM201
Protocol: (§1) Approximately 24 hours after the last treatment the eyes were imaged and clinically scored. The sutured eyes were scored based on vessel density, vessels distance to suture and inflammation. Vessel density was scored out of three, 0=no density, 1=mild, 2=moderate, 3=high. Vessels distance to suture was scored out of four, 0=no reach, 1=small distance, 2=moderate distance, 3=¾ of the way, 4=reached sutures and inflammation was scored out of three, 0=none, 1=minimal, 2=moderate, 3=severe. After clinical scoring the eyes were enucleated, tissue processed, wax embedded and cut into 5 μm sections while taking care to find the sutured area. Sections were stained with haematoxylin and eosin (H&E) to confirm suture location in each eye and adjacent slides were then used for immunohistochemistry to identify CD44+ cells and FKBPL expression as well NFκB and p-IκBα.
(§2) NFκB and phosphorylated-IκBα antibodies were also used in this experiment to see if ALM201 affected the NFκB pathway. Nuclear factor kappa-light-chain-enhancer of B cells or NFκB is a transcription factor which is involved in several processes including inflammation, B cell development, apoptosis, immune regulation and cell proliferation. There are 5 different NFκB heterodimers in the NFκB family, depending on which heterodimer is activated they can activate or repress the transcription of the above process. […]

CD44 = assay: Immunohistochemistry staining for CD44 in rat cornea; assay type: in vivo; conditions: sutured corneas, 1 μM ALM201
Protocol: as §1
(§3) Sections (5 μm) were stained with haematoxylin and eosin (H&E) to confirm suture location in each eye. Adjacent slides were then used for immunohistochemistry to identify, CD44+ cells and FKBPL expression.

[4] = mouse, in vivo, ip, 0.3 mg/kg
Description: as §4

FKBPL = assay: Immunohistochemistry of FKBPL in rat cornea; assay type: in vivo; conditions: 1 μM ALM201
Protocol: as §1, §3

[5] = test system: cell infiltrate, corneal swelling and blood vessels; assay: H&E staining of sutured rat corneas, Example 4; assay type: in vivo
Protocol: as §1, §3

p-IκBα = assay: Immunohistochemistry of p-IκBα expression in rat cornea; assay type: in vivo; conditions: 1 μM ALM201
Protocol: as §1, §2

[6] = test system: infiltrated cells and CD68+ cells in sutured cornea; assay: Histological analysis (H&E, CD68+) of sutured rat eyes, Example 3; assay type: in vivo; conditions: topical ALM201, day 6 after suture and treatment
Protocol: FIG. 11 Histological analysis by haematoxylin and eosin (H&E) staining showing increased infiltration of cells in control samples (PBS or dexamethasone) compared to treated samples (ALM201, 1 μM or 100 μM) at day 6 after suture and treatment. (A) Haematoxylin and eosin stained sections for each of the experimental groups. White arrows indicate sutures and black arrows show blood vessels (scale bar=500 μm). […] (B) The number of total infiltrated cells and (C) number of CD68+ infiltrated cells in each experimental group was quantitated, with higher numbers of infiltrated cells present in the control group compared to the peptide treated group.
On day 0, sutures where placed into the cornea of rats to induce corneal neovascularisation and inflammation. The eyes were treated for 3 days or 6 days with 16 μl of ALM201 (100 nM and 100 μM) or PBS (vehicle control).
Eyes were enucleated on the 3rd or 6th day one hour after treatment and frozen in gelatine.
Cross sections (10 μm) were taken at the centre of the eye for MSI, adjacent sections were stained with haematoxylin and eosin (H&E).

[7] = test system: neovascularisation and inflammation in the injured cornea; assay: ALM201 concentration titration in rat corneal suture model, clinical scoring, Example 4; assay type: in vivo; conditions: for Vessel density, clinical score compared to PBS control group / Inflammation scoring in comparison to PBS treated group: scored day 7
Protocol: Each rat was anesthetised and two 10-0 sutures were placed intrastromally into the temporal cornea of the left eye, 1.5 mm from the limbus. The sutures were left in place for the entirety of the experiment. The right eye was kept as a no suture control but given the same treatment as the left eye. Treatment began approx. 24 hours after suture placement and continued once a day for 6 days.
as §1

retinal inflammation [8] = assay: Mouse EAU model, histopathology (H&E) and histological score; assay type: in vivo, C57BL/6J mice
Description: On day 24 p.i., fundus images were taken from all experimental mice using the TEFI system. Mice were then sacrificed by CO2 inhalation and eyes were carefully removed. All eyes were fixed in 2.5% (w/v) glutaraldehyde (Agar Scientific Ltd, Cambridge, UK) for 2 days at room temperature. Eyes were embedded in paraffin for standard H&E staining. Histological scores of retinal inflammation were graded using a standard scoring system described previously (Dick A. D., Cheng Y. F., Liversidge J., Forrester J. V., 1994. Immunomodulation of experimental autoimmune uveoretinitis: a model of tolerance induction with retinal antigens. Eye 8 (Pt 1), 52-59, incorporated herein by reference). Retinal sections from at least three different layers from each eye were used for histopathological analysis. The average score from three layers was used as the final pathological score of the eye.

[9] = Dexamethasone 0.5 mg/kg p.o. once daily day 14-24 p.i., 10 mice
[10] = subconjunctival injection, 100 nM ALM201, Triamcinolone positive control
[11] = ALM201 0.3 mg/kg i.p. once daily day 14-24 p.i., 10 mice
[12] = ALM201 3 mg/kg i.p. once daily day 14-24 p.i., 10 mice
[13] = once a day for 6 days, ALM201 100 μM
[14] = ALM201 0.3 mg/kg, after 10 days therapy

## C[C@@H]1C[C@H]2[C@@H]3CCC4=CC(=O)C=C[C@]4(C)[C@@]3(F)[C@@H](O)C[C@]2(C)[C@@]1(O)C(=O)CO [Dexamethasone, reference compound]
Retinal inflammation [1]; [9]
  No. of mice with decreased score: 3
  No. of mice with increased score: 3
  No. of mice with increased score (%): (30%)
  No. of mice with no change: 4
Retinal inflammation [1]; Dexamethasone 0.5 mg/kg, the 3 mice with increased score
  Average increment in EAU score: 0.80
Retinal inflammation [1]; Dexamethasone 0.5 mg/kg, the 3 mice with reduced score
  Average reduction in EAU score: 0.69
[2]
  Bodyweight during the 10-day treatment period: stable BW

## C[C@]12C=CC(=O)C=C1CC[C@H]1[C@@H]3C[C@@H](O)[C@](O)(C(=O)CO)[C@@]3(C)C[C@H](O)[C@@]12F [Triamcinolone, reference compound]
[3]; [10]
  Vasculature in images (neovascularisation induced by sutures): normal vasculature

## IRQQPRDPPTETLELEVSPDPAS (listed as Homo Sapiens) [ALM201]
NFκB; sutured corneas
  NFκB expression compared to PBS control sutured corneas: reduction in NFκB expression in the stroma
NFκB; unsutured corneas
  Pattern of NFκB expression: no effect
CD44
  CD44 expression compared to sutured PBS control: decrease in CD44 expression
[4]
  Bodyweight during the 10-day treatment period: stable BW
Retinal inflammation [1]; ALM201 0.3 mg/kg
  Mice in which progression was prevented or inflammation reduced: 20%
  Mice with decreased level of EAU progression: 80%
Retinal inflammation [1]; [11]
  No. of mice with decreased score (%): (10%)
  No. of mice with increased score: 8
  No. of mice with increased score (%): (80%)
  No. of mice with no change (%): (10%)
Retinal inflammation [1]; ALM201 0.3 mg/kg i.p., 0.3 mg/kg
  Difference between day 14 p.i. and day 24 p.i. (clinical score): did not significant change and No
Retinal inflammation [1]; ALM201 0.3 mg/kg, day 24 p.i.
  Retinal infiltrates in fundus images compared to PBS treated EAU mice: the number of infiltrates was fewer
Retinal inflammation [1]; ALM201 0.3 mg/kg, the 8 mice with increased score
  Average increment in clinical score, day 14 to day 24 p.i.: 0.68
Retinal inflammation [1]; [12]
  No. of mice with decreased score: 3
  No. of mice with increased score (%): (40%)
  No. of mice with no change: 3
Retinal inflammation [1]; ALM201 3 mg/kg i.p.
  Difference between day 14 p.i. and day 24 p.i. (clinical score): No
Retinal inflammation [1]; ALM201 3 mg/kg, the 3 mice with decreased score
  Average decrement in clinical score, day 14 to day 24 p.i.: 0.33
Retinal inflammation [1]; ALM201 3 mg/kg, the four mice with increased score
  Average increment in clinical score, day 14 to day 24 p.i.: 0.82 point
FKBPL
  FKBPL expression in the corneal epithelium and stroma in comparison with PBS treated sutured corneas and normal corneas: increased
[5]; ALM201 0.01 μM to 10 μM
  Cell infiltrate, corneal swelling and blood vessels (H&E): decreased as the ALM201 concentration was increased
[5]; ALM201 100 μM
  Corneal swelling (H&E): more corneal swelling was observed
p-IκBα; sutured corneas
  p-IκBα expression compared to PBS treated sutured corneas: reduced
p-IκBα; unsutured corneas
  p-IκBα expression: no expression of p-IκBα
[3]; Hooded Lister Rats, 100 nM ALM201, dexamethasone, vs PBS control
  Suture-induced neovascularisation in images: absence of neovascularisation
[3]; after subconjunctival injection or topical application
  Growth of new blood vessels after corneal damage: prevented growth of new blood vessels
[3]; subconjunctival injection day 0, 3, 6, 100 nM ALM201, graded day 6
  Vessel distance from suture compared to PBS control: significant difference of p<0.01
[3]; [10]
  Vasculature in images (neovascularisation induced by sutures): normal vasculature
[3]; topical treatment, daily
  Vasculature in images (neovascularisation induced by sutures): normal vasculature
  Vessel density compared to PBS control: significantly different
[3]; when injected
  Anti-inflammatory activity: had anti-inflammatory activity when injected
[6]
  CD68+ cell infiltrates compared to PBS-treated and dexamethasone-treated animals: reduced
  Neovascularisation in histological analysis compared to controls: decreased neovascularisation
  Total cell infiltrates compared to PBS-treated and dexamethasone-treated animals: reduced total cell infiltrates
[7]; ALM201 100 μM
  Inflammation and vessel density scores compared with dexamethasone: significant difference in scores
[7]; once a day for 6 days, ALM201 1 μM, dexamethasone positive control
  Vessel density, clinical score compared to PBS control group: significant decrease
[7]; once a day for 6 days, ALM201 10 μM
  Vessel density, clinical score compared to PBS control group: significant decrease
[7]; once a day for 6 days, ALM201 10 μM, dexamethasone positive control
  Inflammation scoring in comparison to PBS treated group: significant difference
[7]; [13]
  Inflammation scoring in comparison to PBS treated group: significant difference
  Vessel density, clinical score compared to PBS control group: significant decrease
[7]; once a day for 6 days, scored day 7 after suture, ALM201 1 μM, dexamethasone positive control
  Vessel distance to sutures, clinical score compared to PBS vehicle control: significantly different
[7]; titration 0.01 μM to 100 μM
  Most effective concentrations in preventing angiogenesis and inflammation: 1 µM and 10 µM
Retinal inflammation [8]; [14]
  Infiltrating cells in retinal histology: Fewer infiltrating cells
  Retinal structure compared to PBS treated mice: retinal structure was better preserved
Retinal inflammation [8]; ALM201 0.3 and 3 mg/kg
  Retinal inflammation graded by standard histological scoring system (FIG. 8H): dose-dependently suppressed retinal inflammation
